# Reference: US20210343368A1, “Method for Engineering Synthetic Cis-Regulatory DNA” (Max-Delbrück-Centrum für Molekulare Medizin in der …, priority 2018, published 2021)
# What was measured:
# Assay type in all cases: cell-based, human
# [1] = system: MES-hGICs-MGT #1low and PN-hGICs-MGT #1low cells; experiment: FACS quantification of Mesenchymal transdifferentiation after Ionizing Radiation and TNFα; conditions: TNFα combined with IR 10 Gy
# Source text: Irradiation of hGICs: Irradiation was delivered using the XenX irradiator platform (XStrahl Life Sciences), equipped with a 225 kV X-ray tube for targeted irradiation. hGICs cultured in either 6-well plates or 96-well plates were placed in the focal plane of the beamline and exposed to irradiation for a specific time, depending on the target dosage, as calculated with an internal calculation software.
# Mesenchymal Differentiation in GBM was originally described as a dominant event at recurrence after radiotherapy^19 and later linked to acquired radio-resistance via TNF-driven NFKB activation^20. Repeatedly, correlative evidences support a link between inflammatory signaling, EMT and radio-resistance^34. To functionally test whether irradiation may induce Mesenchymal transdifferentiation in cell autonomous manner, MES-hGICs-MGT #1^low and PN-hGICs-MGT #1^low cells were exposed to Ionizing Radiation (IR), alone or in combination with TNFα. […] The residual DNA damage marker […] phosphorylation twenty-four hours post irradiation confirmed the occurrence of both double-strand breaks and repair. However, only a minor proportion of GICs turned to a MGT #1^high state from either genetic background (FIG. 2g-h). […] The data also support the speculation that NFKB activation is augmented as a result of non-canonical signaling caused by genotoxic stress^36.
# A549-MGT #1low cells = experiment: Cytokine screening, microplate reader MGT #1 fluorescence; conditions: cytokine alone
# Procedure: Phenotypic screening: Tumor cells were propagated as described above until the screening. Then we seeded 15′000/50 μl/well in 384 well plates (Corning), in Gibco FluoroBrite DMEM medium supplemented with the appropriate growth factors. Cells were dispensed as 50 μl suspension into each well using the SPARK20M Injector system (50 μl injection volume; 100 μl/s injection speed). For non-adherent cells (e.g. GICs), cells were further centrifuge at 1500 rpm for 1 h30 min at 37° C. Bottom reading fluorescence was scanned using a SPARM 20M TECAN plate reader at 37° C. in a 5% CO2-95% air (3% for GICs) in a humidified cassette, with the following settings for mVenus: Monochromator, Ex 505 nm±20 nm, Em 535 nm±7.5 nm, manual gain:198, flashes: 35, Integration time:40 μs. In independent replicas, cell viability was measured with 0.02% AlamarBlue solution in FluoroBrite medium with the following settings: Fluorescence Top reading. Monochromator, Ex 565 nm±10 nm, Em 592 nm±10 nm, manual gain: 88, flashes: 30, Integration time:40 μs.
# DMSO-soluble compounds such as GSK126, were robotically aliquoted using a D300e, whereas cytokines were robotically aliquoted to each well using an Andrew pipetting robot (AndrewAlliance), using the following concentrations:
# To exploit Ezh2 inhibition and MGT #1 as a framework to clarify the signaling basis of EMT in NSCLC cells, we next performed a cytokine screening in GSK126- and vehicle-treated A549-MGT #1^low cells.
# [2] = system: MES-hGICs-MGT #1low and PN-hGICs-MGT #1low cells; experiment: Phenotypic screening of sLCR response to selected factors, FACS; conditions: 48 hours after stimulation
# Procedure: NBE-propagated hGICs were stimulated with selected factors (cytokines, growth factors, compounds) and FACS analyzed 48 hours after stimulation (FIG. 13b). […] (FIG. 13b-c and 17). […] Indeed, TNFα was previously reported as a prominent MES-GBM signaling pathway and inducer of a PN-to-MES transition.
# RELA KO MES-hGICs = experiment: FACS quantification of MGT #1 in RELA KO MES-hGICs; conditions: polyclonal and monoclonal RELA KO cells
# Procedure: FACS analysis: Analysis was performed with FlowJo_V10.
# Canonical NFkB activation can occur downstream TNFα signaling as well as by non-canonical genotoxic stress.
substance,measurement,setting,value
TNFα,Mesenchymal differentiation (MGT #1high),[1],augmented Mesenchymal differentiation
same,"MGT #1 expression, fluorescence output",A549-MGT #1low cells,leading signaling towards MGT #1 expression
same,sLCR (MGT #1-2) response normalized to naive hGICs,[2],MES-GBM regulators
same,ability to induce MES-GBM signaling,RELA KO MES-hGICs,markedly impaired
